In patent US20240391931A1 (Bristol-Myers Squibb Company, priority 2021, published 2024):
Where a name gives a salt, the structure may show the parent alone. Read-outs that look alike come from different tables or passages of the source.

How the values were obtained:
Ba/F3 parental cells = test: Cellular proliferation in Ba/F3 parental (IL3-dependent) cells; format: cell-based, murine; settings: Mus musculus, BaF3
Protocol: (§1) Engineered lines expressing HER2YVMA and HER2 WT were prepared in HEK293 (human embryonic kidney cells), Ba/F3 (Interleukin 3 (IL3)-dependent murine pro B cell line), and BEAS2B (primary immortalized human bronchial epithelial cell line). Ba/F3, BEAS2B, and HEK293 cells were obtained from the American Type Culture Collection (ATCC, Manassas, VA). Parental Ba/F3 cells were grown in suspension in complete RPMI 1640 supplemented with 10% FBS and 1% P/S and 10 ng/ml interleukin 3 (IL3, Sigma-Aldrich). Hek293 and BEAS2B cells were grown as monolayers in DMEM supplemented with 10% FBS and 1% P/S. All cells were maintained and propagated in a humidified 5% CO2 incubator at 37° C.
(§2) Cell proliferation in non-adherent cells was investigated in Ba/F3 parental (IL3-dependent) and in the two IL3 independent cell clones tranduced to express mutant HER2 protein containing the YVMA insertion (Ba/F3 HER2YVMA). Cells were plated in DMEM supplemented with 10% FBS, 1% P/S, and 10 ng/ml IL3 (for parental Ba/F3 only) in 96-well white clear-bottom tissue culture plates (Costar, Sigma-Aldrich) at a starting cell density of 7500 cells. An 8-point standard curve with varying cell densities (starting at 100,000 cells and serially diluting down 2-fold) was prepared for each cell line and read after plating. Compound solutions were prepared in serum free media, and cells were treated as described above for adherent cells. Cell viability was determined by CellTiter Glo (Promega, Madison, WI) after 72 h. The results were converted to cell numbers using a standard curve; growth inhibition (GI50 values) were determined by Graph Pad Prism.
(§3) The results of these experiments show the ability of compounds to inhibit cell growth in HER2 dependent cell lines and a control cell line (Ba/F3 parental) are depicted in Table 4 in the columns titled “G150 (nM)”. Ba/F3 parental results fall under the heading “Ba/F3 parental-G150”, and Ba/F3 HER2YVMA fall under the heading “Ba/F3 YVMA-G150”.

HER2 = target: T1, HER2 (Homo sapiens, UniProt P04626); test: HER2 occupancy assay in N87 cells; format: cell-based; settings: concentration at which 50% of HER2 is irreversible bound, read-out: N87 HER2 Occ
T1 construct: BT474 and N87 cell lines which endogenously overexpress the HER2 wildtype (WT) protein; endogenous in cells; host or cells: BT474, N87
Protocol: In order to assess free HER2 protein, a biotinylated probe was utilized. BT474, N87, and Ba/F3-HER2YVMA cells were treated with test compound as described for HER2 signaling. After compound treatment, cells were washed three times with cold phosphate buffer saline (PBS, Life Technologies, Carlsbad, CA), and lysed in modified occupancy lysis buffer prepared with an irreversible biotinylated tool compound (1 μM) in 25 mM Tris pH 7.5, 150 mM NaCl, 1% Triton, and supplemented with cOmplete, EDTA-free Protease inhibitor cocktail (Roche), Phosphatase Inhibitor Cocktails 2 and 3 (Sigma-Aldrich), and 1 mM PMSF (Sigma-Aldrich).
To determine % occupancy, lysates were loaded into duplicate plates of the phospho (Tyr1248)/total ErbB2 whole cell lysate MSD kit (Meso-Scale Discovery) and incubated overnight. Plates were washed and incubation with either HER2-sulfoTag (1:50, Meso Scale Discovery) or Strep-Sulfo Tag (1:1000, Meso Scale Discovery), for detection of […]. A standard curve of untreated cells in serial dilution was included in each plate to independently fit streptavidin (Free HER2) and total HER2 MSD signals; non-specific signal (BSA control spots) was subtracted from each well. Free HER2 was then normalized by total HER2 for each sample. The results are reported as % DMSO control. The normalized data was fitted using a sigmoidal curve analysis program (Graph Pad Prism version 6) with variable Hill slope to determine EC50 values. The results are provided in Table 4, under columns titled “BT474-HER2 Occ”, “N87-HER2 Occ”, and “Ba/F3 YVMA-HER2 Occ”. HER2 Occ is the concentration of test compound at which 50% of HER2 is irreversible bound.

EGFR = EGFR (Homo sapiens, UniProt P00533); test: EGFR occupancy in N87 cells; format: cell-based; parameters: endogenous in cells; host or cells: N87
Protocol: In order to assess free EGFR protein, a biotinylated probe was utilized as described for HER2 occupancy. N87 cells were plated, treated, and lysed as described for HER2 occupancy method. After treatment, the cells were washed three times with cold PBS, lysed at room temperature for 1 hr in modified occupancy lysis buffer (prepared as described in section titled “HER2 Occupancy Assay”). Lysates were stored at −70° C. until further analysis. For determination of % occupancy, lysates were loaded into duplicate plates of the phospho (Tyr 1068)/total EGFR whole cell lysate kit (Meso-Scale Discovery) and incubated overnight. Plates were washed and incubated with either EGFR-sulfoTag (1:50, Meso Scale Discovery) or Strep-Sulfo Tag (1:1000, Meso Scale Discovery), for detection of free and total EGFR, respectively. BSA control spots included in MSD plates were used to subtract non-specific signal. A standard curve of untreated cells in serial dilution was included in each plate to convert streptavidin and total EGFR MSD signals into free EGFR and total EGFR. Free EGFR was normalized to total EGFR for each sample. Data, reported as % […] control, was fitted using a sigmoidal curve analysis program (Graph Pad Prism version 6) with variable Hill slope to determine EC50 values. The results are provided in Table 4, under column titled “N87-EGFR Occ”. EGFR Occ is the concentration of test compound at which 50% of EGFR is irreversible bound.

Ba/F3 HER2YVMA cells = test: Cellular proliferation in Ba/F3 HER2YVMA cells; format: cell-based, murine; settings: Mus musculus, BaF3, read-out: Ba/F3 YVMA GI50
Protocol: as §1
To generate Ba/F3, BEAS2B, and Hek-293 cells engineered with lentivirus to express HER2 WT or HER2YVMA, the cells were transduced with lentiviruses at multiplicity of infection (MOI) of 1 or 10; transduced cells were selected and maintained with G418 ([…]) (Geneticin, Life Technologies, Carlsbad, CA). Ba/F3 engineered cells were subjected to gradual withdrawal of interleukin 3 (IL-3, Sigma-Aldrich). After selection, IL3 independent Ba/F3 HER2YVMA, and BEAS2B HER2YVMA cells were cloned by limiting dilution. Hek293 HER2YVMA cells were used as pool. HER2 and phospho HER2 levels were confirmed by flow cytometery and immunoassay (MSD, Meso-Scale Discovery, Rockville, Maryland).
as §2, §3

[1] = N87 cells, concentration at which 50% of EGFR is irreversible bound, read-out: N87 EGFR Occ

Sequence of EGFR (P00533 25-1210): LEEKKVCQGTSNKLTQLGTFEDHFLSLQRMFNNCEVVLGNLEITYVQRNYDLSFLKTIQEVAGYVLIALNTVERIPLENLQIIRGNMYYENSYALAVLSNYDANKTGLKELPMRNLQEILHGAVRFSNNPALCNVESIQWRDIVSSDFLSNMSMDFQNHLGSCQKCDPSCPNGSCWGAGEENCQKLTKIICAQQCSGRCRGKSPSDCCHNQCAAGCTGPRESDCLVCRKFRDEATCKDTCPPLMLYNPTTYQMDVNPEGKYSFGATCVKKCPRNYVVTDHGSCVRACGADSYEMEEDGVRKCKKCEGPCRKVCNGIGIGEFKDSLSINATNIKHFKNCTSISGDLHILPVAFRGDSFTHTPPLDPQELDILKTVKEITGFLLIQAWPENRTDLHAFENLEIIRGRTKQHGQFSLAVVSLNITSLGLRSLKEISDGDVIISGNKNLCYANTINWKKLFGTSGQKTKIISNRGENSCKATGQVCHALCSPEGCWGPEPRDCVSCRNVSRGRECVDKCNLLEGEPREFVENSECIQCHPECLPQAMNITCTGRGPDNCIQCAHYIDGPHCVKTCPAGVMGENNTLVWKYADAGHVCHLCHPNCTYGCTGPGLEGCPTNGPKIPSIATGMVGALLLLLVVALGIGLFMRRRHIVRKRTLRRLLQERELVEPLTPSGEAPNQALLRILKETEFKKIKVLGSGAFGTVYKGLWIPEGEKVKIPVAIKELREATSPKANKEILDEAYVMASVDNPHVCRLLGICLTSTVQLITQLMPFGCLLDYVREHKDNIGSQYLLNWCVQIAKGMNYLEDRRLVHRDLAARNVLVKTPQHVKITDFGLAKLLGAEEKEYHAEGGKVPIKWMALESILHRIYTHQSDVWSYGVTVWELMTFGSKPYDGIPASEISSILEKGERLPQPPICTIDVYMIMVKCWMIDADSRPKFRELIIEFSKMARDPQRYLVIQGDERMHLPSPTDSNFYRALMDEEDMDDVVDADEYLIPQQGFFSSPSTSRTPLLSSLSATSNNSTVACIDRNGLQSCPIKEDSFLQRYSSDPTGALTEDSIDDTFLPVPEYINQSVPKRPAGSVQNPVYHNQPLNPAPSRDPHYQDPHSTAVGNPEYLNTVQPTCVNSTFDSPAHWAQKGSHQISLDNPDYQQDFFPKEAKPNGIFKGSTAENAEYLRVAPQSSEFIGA
T1 sequence (P04626 23-1255): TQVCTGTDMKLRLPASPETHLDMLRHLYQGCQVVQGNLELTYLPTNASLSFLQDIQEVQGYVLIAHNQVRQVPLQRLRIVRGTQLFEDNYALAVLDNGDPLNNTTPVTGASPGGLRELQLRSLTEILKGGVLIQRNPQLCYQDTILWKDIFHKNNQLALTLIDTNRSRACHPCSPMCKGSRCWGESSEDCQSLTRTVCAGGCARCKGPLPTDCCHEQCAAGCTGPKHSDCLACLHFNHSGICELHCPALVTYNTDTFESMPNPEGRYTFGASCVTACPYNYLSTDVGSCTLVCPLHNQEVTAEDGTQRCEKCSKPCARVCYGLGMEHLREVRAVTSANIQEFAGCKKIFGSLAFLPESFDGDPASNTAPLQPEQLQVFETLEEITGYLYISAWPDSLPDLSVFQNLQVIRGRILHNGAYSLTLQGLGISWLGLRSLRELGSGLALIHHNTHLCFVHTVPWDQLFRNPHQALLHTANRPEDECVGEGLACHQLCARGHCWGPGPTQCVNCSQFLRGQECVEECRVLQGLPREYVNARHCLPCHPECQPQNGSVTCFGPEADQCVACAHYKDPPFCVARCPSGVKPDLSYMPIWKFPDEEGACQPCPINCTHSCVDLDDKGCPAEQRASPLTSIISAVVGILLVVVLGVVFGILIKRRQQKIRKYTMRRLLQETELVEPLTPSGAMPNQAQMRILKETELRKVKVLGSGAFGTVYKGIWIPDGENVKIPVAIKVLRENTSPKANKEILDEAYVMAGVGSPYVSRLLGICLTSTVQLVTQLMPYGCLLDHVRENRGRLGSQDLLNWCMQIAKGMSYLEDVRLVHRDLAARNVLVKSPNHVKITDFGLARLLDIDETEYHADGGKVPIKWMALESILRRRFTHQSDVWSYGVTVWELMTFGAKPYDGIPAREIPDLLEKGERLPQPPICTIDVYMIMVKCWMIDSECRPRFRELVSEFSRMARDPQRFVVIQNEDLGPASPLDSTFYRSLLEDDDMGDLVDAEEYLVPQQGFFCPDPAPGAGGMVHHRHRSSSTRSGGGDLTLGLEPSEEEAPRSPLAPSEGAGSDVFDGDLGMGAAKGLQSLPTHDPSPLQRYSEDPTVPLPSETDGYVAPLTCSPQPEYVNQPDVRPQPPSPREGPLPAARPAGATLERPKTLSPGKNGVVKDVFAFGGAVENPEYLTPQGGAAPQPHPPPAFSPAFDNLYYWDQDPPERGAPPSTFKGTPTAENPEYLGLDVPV

Row | SMILES | GI50 (Ba/F3 parental cells) [nM] | EC50 (HER2) [nM] | EC50 (EGFR; [1]) [nM] | GI50 (Ba/F3 HER2YVMA cells) [nM] | EC50 (EGFR) [nM]
1 | Cc1ccc(Oc2ccc(Nc3ncnc4sc5c(c34)CCN(C(=O)/C=C/CN(C)C)C5)cc2C)cn1 [Compound 8, (E)-4-(Dimethylamino)-1-(4-((3-methyl-4-((6-methylpyridin-3-yl)oxy)phenyl)amino)-5,6-dihydropyrido[4′,3′:4,5]thieno[2,3-d]pyrimidin-7(8H)-yl)but-2-en-1-one] | 1000 to 10000 | < 100 | < 100 | < 100 | –
2 | Cc1cc(Nc2ncnc3sc4c(c23)CCN(C(=O)/C=C/CN2CCOCC2)C4)ccc1Oc1ccc2ncnn2c1 [Compound 12] | – | < 100 | > 1000 | – | –
3 | Cc1ccc(Oc2ccc(Nc3ncnc4sc5c(c34)CCN(C(=O)/C=C/CN3CC4CCC3C4)C5)cc2C)cn1 (stereo not shown) [Compound 14] | – | < 100 | < 100 | – | –
4 | Cc1ccc(Oc2ccc(Nc3ncnc4sc5c(c34)CCN(C(=O)/C=C/CN3CC4CC(C3)O4)C5)cc2C)cn1 [Compound 15] | – | < 100 | < 100 | – | –
5 | Cc1ccc(Oc2ccc(Nc3ncnc4sc5c(c34)CCN(C(=O)/C=C/CN3CC4CCC(C4)C3)C5)cc2C)cn1 [Compound 16, (E)-4-(3-azabicyclo[3.2.1]octan-3-yl)-1-(4-((3-methyl-4-((6-methylpyridin-3-yl)oxy)phenyl)amino)-5,8-dihydropyrido[4′,3′:4,5]thieno[2,3-d]pyrimidin-7(6H)-yl)but-2-en-1-one benzenesulfonate salt] | – | < 100 | – | – | 100 to 350
6 | Cc1ccc(Oc2ccc(Nc3ncnc4sc5c(c34)CCN(C(=O)/C=C/CN3CCOCC3)C5)cc2C)cn1 [Compound 17, (E)-1-(4-((3-Methyl-4-((6-methylpyridin-3-yl)oxy)phenyl)amino)-5,6-dihydropyrido[4′,3′:4,5]thieno[2,3-d]pyrimidin-7(8H)-yl)-4-morpholinobut-2-en-1-one] | – | < 100 | 100 to 350 | – | –
7 | Cc1ccc(Oc2ccc(Nc3ncnc4sc5c(c34)CN(C(=O)/C=C/CN(C)C)CC5)cc2C)cn1 [Compound 108, (E)-4-(Dimethylamino)-1-(4-((3-methyl-4-((6-methylpyridin-3-yl)oxy)phenyl)amino)-7,8-dihydropyrido[3′,4′:4,5]thieno[2,3-d]pyrimidin-6(5H)-yl)but-2-en-1-one] | 1000 to 10000 | – | – | < 100 | –
8 | Cc1ccc(Oc2ccc(Nc3ncnc4sc5c(c34)CCN(C(=O)/C=C/CN3CC[C@H](F)C3)C5)cc2C)cn1 [Compound 124] | 1000 to 10000 | – | – | < 100 | –
9 | Cc1cc(Nc2ncnc3sc4c(c23)CCN(C(=O)/C=C/CN(C)C)C4)ccc1Oc1ccn2ccnc2c1 [Compound 126, (E)-4-(dimethylamino)-1-(4-((4-(imidazo[1,2-a]pyridin-7-yloxy)-3-methylphenyl)amino)-5,8-dihydropyrido[4′,3′:4,5]thieno[2,3-d]pyrimidin-7(6H)-yl)but-2-en-1-one] | 1000 to 10000 | – | – | < 100 | –
10 | Cc1nc2cc(Oc3ccc(Nc4ncnc5sc6c(c45)CCN(C(=O)/C=C/CN(C)C)C6)cc3C)ccn2n1 [Compound 127, (E)-4-(dimethylamino)-1-(4-((3-methyl-4-((2-methyl-[1,2,4]triazolo[1,5-a]pyridin-7-yl)oxy)phenyl)amino)-5,6-dihydropyrido[4′,3′:4,5]thieno[2,3-d]pyrimidin-7(8H)-yl)but-2-en-1-one] | 1000 to 10000 | – | – | 100 to 1000 | –
11 | COc1ccc(Oc2ccc(Nc3ncnc4sc5c(c34)CN(C(=O)/C=C/CN(C)C)C5)cc2C)cn1 [Compound 128, (E)-4-(dimethylamino)-1-(4-((4-((6-methoxypyridin-3-yl)oxy)-3-methylphenyl)amino)-5,7-dihydro-6H-pyrrolo[3′,4′:4,5]thieno[2,3-d]pyrimidin-6-yl)but-2-en-1-one] | 1000 to 10000 | < 100 | > 1000 | < 100 | –
12 | Cc1ccc(Oc2ccc(Nc3ncnc4sc5c(c34)CN(C(=O)/C=C/CN(C)C)C5)cc2Cl)cn1 [Compound 129, (E)-1-(4-((3-Chloro-4-((6-methylpyridin-3-yl)oxy)phenyl)amino)-5H-pyrrolo[3′,4′:4,5]thieno[2,3-d]pyrimidin-6(7H)-yl)-4-(dimethylamino)but-2-en-1-one] | – | < 100 | 100 to 350 | < 100 | –
13 | Cc1cc(Nc2ncnc3sc4c(c23)CN(C(=O)/C=C/CN(C)C)C4)ccc1Oc1ccn2ncnc2c1 [Compound 130, (E)-1-(4-((4-([1,2,4]Triazolo[1,5-a]pyridin-7-yloxy)-3-methylphenyl)amino)-5H-pyrrolo[3′,4′:4,5]thieno[2,3-d]pyrimidin-6(7H)-yl)-4-(dimethylamino)but-2-en-1-one] | 1000 to 10000 | – | – | < 100 | –
